Data reported in patent US10913744B2, “LRRK2 inhibitors and methods of making and using the same” (Dana-Farber Cancer Institute, Inc., priority 2015, dated 2021).
Like-named read-outs stand apart in the source and are kept apart here.

Experiments:
MET = MET (Homo sapiens (Human), UniProt P08581); assay: KinomeScan; format: binding; details: 1 uM
SRPK1 = SRPK1 (Homo sapiens (Human), UniProt Q96SB4); assay: Dundee profiling
WNK1 = WNK1 (Homo sapiens (Human), UniProt Q9H4A3); assay: Dundee profiling
PAK6 = PAK6 (Homo sapiens (Human), UniProt Q9NQU5); assay: Dundee profiling
Chain of PAK6 (Q9NQU5 whole entry, species assumed): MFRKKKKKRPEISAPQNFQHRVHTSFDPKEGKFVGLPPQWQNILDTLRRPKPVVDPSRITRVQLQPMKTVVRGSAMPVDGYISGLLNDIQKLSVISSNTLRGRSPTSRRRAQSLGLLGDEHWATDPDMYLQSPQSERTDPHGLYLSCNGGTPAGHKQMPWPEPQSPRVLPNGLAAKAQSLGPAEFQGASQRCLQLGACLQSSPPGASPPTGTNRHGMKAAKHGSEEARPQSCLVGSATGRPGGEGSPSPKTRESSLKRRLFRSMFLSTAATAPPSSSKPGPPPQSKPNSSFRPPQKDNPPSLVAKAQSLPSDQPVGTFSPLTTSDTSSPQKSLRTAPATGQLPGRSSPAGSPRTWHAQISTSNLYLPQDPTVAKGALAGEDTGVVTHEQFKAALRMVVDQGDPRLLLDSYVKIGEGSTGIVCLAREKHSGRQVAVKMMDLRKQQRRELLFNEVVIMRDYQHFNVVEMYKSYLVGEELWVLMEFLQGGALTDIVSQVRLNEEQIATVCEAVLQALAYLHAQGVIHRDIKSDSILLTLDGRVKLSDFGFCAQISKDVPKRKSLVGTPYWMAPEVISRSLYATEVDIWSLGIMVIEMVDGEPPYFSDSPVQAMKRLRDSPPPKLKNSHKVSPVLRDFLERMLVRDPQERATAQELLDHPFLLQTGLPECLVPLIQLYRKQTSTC

IR = IR (Homo sapiens (Human), UniProt P06213); assay: Dundee profiling
GCK = GCK (Homo sapiens (Human), UniProt Q12851); assay: Dundee profiling
PRAK = PRAK (Homo sapiens (Human), UniProt Q8IW41); assay: Dundee profiling
ULK2 = ULK2 (Homo sapiens (Human), UniProt Q8IYT8); assay: Dundee profiling
FLT3 (ITD) = assay: KinomeScan; format: binding; details: 1 uM
FGF-R1 = FGF-R1 (Homo sapiens (Human), UniProt P11362); assay: Dundee profiling
Chain of FGF-R1 (P11362 22-822, species assumed): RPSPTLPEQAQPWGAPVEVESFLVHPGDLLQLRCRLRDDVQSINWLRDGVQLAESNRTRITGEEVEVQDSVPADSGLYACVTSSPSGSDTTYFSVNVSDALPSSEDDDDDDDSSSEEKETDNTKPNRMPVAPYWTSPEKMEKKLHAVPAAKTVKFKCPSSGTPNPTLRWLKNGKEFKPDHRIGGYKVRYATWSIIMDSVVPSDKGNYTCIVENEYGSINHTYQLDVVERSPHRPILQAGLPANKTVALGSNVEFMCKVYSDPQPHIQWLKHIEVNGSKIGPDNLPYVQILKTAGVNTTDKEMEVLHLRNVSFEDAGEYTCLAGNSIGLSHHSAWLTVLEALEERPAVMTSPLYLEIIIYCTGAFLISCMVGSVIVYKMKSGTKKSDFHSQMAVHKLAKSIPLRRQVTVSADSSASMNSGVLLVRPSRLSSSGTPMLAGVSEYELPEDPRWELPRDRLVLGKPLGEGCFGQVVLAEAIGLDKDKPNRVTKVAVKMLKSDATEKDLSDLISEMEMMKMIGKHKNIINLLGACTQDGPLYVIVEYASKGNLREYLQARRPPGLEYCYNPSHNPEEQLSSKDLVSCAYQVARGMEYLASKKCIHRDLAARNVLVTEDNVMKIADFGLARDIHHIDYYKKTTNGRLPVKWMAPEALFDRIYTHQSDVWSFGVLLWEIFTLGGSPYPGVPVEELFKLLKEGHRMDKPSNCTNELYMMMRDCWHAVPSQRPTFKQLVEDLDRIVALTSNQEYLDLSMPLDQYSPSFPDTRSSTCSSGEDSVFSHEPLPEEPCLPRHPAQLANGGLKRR

[1] = biological target: EGFR (L747-T751del, Sins) (Homo sapiens (Human), UniProt P00533, DEL747-751/INS746S); assay: KinomeScan; format: binding; details: 1 uM
PAK4 = PAK4 (Homo sapiens (Human), UniProt O96013); assay: Dundee profiling
MST1 = MST1 (Homo sapiens (Human), UniProt Q13043); assay: KinomeScan; format: binding; details: 1 uM
TLK1 = TLK1 (Homo sapiens (Human), UniProt Q9UKI8); assay: Dundee profiling
Chain of TLK1 (Q9UKI8 whole entry, looked up, species assumed): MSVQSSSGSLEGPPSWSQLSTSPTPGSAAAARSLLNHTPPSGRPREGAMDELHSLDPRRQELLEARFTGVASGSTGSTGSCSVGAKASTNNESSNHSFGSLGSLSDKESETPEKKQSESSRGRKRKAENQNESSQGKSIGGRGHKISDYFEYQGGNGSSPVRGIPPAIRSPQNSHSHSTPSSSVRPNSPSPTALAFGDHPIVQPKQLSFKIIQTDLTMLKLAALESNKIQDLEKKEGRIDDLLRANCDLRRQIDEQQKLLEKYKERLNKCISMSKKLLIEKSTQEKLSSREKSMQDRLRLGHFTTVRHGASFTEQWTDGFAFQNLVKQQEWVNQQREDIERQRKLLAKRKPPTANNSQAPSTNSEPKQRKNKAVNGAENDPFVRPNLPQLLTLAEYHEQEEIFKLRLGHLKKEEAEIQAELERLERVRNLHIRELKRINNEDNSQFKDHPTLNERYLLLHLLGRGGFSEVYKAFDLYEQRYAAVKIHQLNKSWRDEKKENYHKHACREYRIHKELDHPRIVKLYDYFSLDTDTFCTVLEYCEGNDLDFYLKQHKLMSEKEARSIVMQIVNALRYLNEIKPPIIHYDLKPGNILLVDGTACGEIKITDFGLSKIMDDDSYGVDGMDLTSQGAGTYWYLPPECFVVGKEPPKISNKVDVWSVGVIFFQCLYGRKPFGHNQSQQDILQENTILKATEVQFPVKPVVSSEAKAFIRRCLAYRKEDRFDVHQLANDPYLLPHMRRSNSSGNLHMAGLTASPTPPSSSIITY

MLK1 = MLK1 (Homo sapiens (Human), UniProt P80192); assay: Dundee profiling
VEG-FR = assay: Dundee profiling
HER4 = HER4 (Homo sapiens (Human), UniProt Q15303); assay: Dundee profiling
Chain of HER4 (Q15303 26-1308, species assumed): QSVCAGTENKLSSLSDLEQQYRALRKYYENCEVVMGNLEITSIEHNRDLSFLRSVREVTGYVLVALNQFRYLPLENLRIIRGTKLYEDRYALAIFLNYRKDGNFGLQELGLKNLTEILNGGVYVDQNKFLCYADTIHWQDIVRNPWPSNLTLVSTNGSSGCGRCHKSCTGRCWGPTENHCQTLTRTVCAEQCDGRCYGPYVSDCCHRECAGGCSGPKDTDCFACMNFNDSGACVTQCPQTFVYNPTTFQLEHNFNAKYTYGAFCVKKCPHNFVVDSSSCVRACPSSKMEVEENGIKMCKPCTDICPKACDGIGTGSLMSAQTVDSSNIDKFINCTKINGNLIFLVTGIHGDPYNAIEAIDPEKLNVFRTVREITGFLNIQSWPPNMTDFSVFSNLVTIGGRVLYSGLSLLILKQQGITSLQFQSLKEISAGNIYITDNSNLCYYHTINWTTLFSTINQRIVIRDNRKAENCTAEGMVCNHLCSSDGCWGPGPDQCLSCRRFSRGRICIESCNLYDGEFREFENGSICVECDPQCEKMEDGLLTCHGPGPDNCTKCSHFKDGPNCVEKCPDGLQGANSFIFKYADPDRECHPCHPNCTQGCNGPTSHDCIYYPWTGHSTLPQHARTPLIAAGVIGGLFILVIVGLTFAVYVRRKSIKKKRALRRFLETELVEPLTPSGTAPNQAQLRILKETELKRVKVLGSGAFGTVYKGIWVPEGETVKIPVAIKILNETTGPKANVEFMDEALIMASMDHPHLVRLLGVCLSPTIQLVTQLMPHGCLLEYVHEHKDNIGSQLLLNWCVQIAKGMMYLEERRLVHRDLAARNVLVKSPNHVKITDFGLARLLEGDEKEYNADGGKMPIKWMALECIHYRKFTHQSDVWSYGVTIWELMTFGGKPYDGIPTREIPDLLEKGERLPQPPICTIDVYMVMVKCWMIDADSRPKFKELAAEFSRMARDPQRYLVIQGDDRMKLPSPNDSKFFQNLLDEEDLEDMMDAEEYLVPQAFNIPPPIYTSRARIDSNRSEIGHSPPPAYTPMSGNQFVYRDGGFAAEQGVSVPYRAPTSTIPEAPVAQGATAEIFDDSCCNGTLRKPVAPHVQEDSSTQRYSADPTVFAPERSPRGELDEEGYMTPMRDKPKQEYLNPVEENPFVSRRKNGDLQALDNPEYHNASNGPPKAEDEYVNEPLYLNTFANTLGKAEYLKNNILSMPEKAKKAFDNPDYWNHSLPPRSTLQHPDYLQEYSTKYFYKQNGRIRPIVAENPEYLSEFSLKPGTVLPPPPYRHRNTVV

ACVR2B = ACVR2B (Homo sapiens (Human), UniProt Q13705); assay: KinomeScan; format: binding; details: 1 uM
ULK3 = ULK3 (Homo sapiens (Human), UniProt Q6PHR2); assay: KinomeScan; format: binding; details: 1 uM
STK33 = STK33 (Homo sapiens (Human), UniProt Q9BYT3); assay: Dundee profiling
TTBK2 = TTBK2 (Homo sapiens (Human), UniProt Q6IQ55); assay: Dundee profiling
DCAMKL1 = DCAMKL1 (Homo sapiens (Human), UniProt O15075); assay: KinomeScan; format: binding; details: 1 uM
CSNK1G1 = CSNK1G1 (Homo sapiens (Human), UniProt Q9HCP0); assay: KinomeScan; format: binding; details: 1 uM
TTK = TTK (Homo sapiens (Human), UniProt P33981); assay: Dundee profiling
EGFR (G719C) = EGFR (G719C) (Homo sapiens (Human), UniProt P00533, G719C); assay: KinomeScan; format: binding; details: 1 uM
JNK1 = JNK1 (Homo sapiens (Human), UniProt P45983); assay: Dundee profiling
MET (M1250T) = MET (M1250T) (Homo sapiens (Human), UniProt P08581, M1250T); assay: KinomeScan; format: binding; details: 1 uM
EGFR (L858R, T790M) = EGFR (L858R, T790M) (Homo sapiens (Human), UniProt P00533, L858R/T790M); assay: KinomeScan; format: binding; details: 1 uM
MST3 = MST3 (Homo sapiens (Human), UniProt Q9Y6E0); assay: KinomeScan; format: binding; details: 1 uM
MLK3 = MLK3 (Homo sapiens (Human), UniProt Q16584); assay: Dundee profiling
Chain of MLK3 (Q16584 whole entry, looked up, species assumed): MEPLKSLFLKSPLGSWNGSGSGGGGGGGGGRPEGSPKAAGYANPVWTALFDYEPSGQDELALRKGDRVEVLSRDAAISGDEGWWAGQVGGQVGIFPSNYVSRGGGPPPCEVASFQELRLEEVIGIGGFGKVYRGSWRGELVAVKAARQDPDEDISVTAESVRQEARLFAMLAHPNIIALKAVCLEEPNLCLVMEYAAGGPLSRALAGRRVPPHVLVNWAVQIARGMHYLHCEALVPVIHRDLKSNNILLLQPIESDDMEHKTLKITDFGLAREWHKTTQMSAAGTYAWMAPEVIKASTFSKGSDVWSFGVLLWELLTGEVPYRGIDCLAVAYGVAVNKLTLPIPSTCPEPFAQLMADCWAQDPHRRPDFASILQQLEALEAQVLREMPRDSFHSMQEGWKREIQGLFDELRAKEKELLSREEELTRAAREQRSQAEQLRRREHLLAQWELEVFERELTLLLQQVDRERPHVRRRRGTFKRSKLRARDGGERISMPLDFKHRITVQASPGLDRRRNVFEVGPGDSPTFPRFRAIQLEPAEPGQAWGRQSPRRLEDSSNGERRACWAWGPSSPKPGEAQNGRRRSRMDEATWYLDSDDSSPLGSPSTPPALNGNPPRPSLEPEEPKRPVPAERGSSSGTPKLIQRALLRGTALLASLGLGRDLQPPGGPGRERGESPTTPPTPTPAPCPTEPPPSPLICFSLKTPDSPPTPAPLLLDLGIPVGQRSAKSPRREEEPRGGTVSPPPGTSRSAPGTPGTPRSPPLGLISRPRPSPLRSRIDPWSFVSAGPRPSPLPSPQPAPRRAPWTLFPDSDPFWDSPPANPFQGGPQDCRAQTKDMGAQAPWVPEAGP

MAP4K3 = MAP4K3 (Homo sapiens (Human), UniProt Q8IVH8); assay: Dundee profiling
DYRK2 = DYRK2 (Homo sapiens (Human), UniProt Q92630); assay: Dundee profiling
SNARK = SNARK (Homo sapiens (Human), UniProt Q9H093); assay: KinomeScan; format: binding; details: 1 uM
RSK2 = RSK2 (Homo sapiens (Human), UniProt P51812); assay: Dundee profiling
GSK3b = GSK3b (Homo sapiens (Human), UniProt P49841); assay: Dundee profiling
Chain of GSK3b (P49841 whole entry, looked up, species assumed): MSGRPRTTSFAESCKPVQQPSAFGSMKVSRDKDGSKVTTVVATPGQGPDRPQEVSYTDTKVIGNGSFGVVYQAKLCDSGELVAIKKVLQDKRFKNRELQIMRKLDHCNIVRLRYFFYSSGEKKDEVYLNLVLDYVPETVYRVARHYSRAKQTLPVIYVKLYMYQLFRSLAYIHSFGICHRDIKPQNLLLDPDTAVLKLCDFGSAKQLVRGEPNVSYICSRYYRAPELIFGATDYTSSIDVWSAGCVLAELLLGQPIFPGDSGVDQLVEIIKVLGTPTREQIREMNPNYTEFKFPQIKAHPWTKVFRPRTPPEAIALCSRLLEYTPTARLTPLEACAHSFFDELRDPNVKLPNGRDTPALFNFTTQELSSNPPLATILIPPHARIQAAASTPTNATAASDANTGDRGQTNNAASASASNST

[2] = read-out: percent remaining enzymatic activity, I1, 1 μM
[3] = read-out: percent remaining enzymatic activity, I10
[4] = read-out: percent remaining enzymatic activity

CNc1nc(Nc2ccc(C(=O)N3CCOCC3)cc2OC)nc2[nH]cc(Cl)c12 [Compound 18, (4-((5-chloro-4-(methylamino)-7H-pyrrolo[2,3-d]pyrimidin-2-yl)amino)-3-methoxyphenyl)(morpholino)methanone]
KinomeScan value (MET): 97 | remaining activity at 1 µM (SRPK1; [2]): 89% | remaining activity at 1 µM (SRPK1; [3]): 31% | percent remaining enzymatic activity (WNK1; I10): 115% | remaining activity at 1 µM (WNK1; [4]): 108% | remaining activity at 1 µM (PAK6; [2]): 102% | remaining activity at 1 µM (PAK6; [3]): 105% | remaining activity at 1 µM (IR; [2]): 21% | remaining activity at 1 µM (IR; [3]): 10% | remaining activity at 1 µM (GCK; [2]): 86% | remaining activity at 1 µM (GCK; [3]): 41% | remaining activity at 1 µM (PRAK; [2]): 43% | remaining activity at 1 µM (PRAK; [3]): 6% | remaining activity at 1 µM (ULK2; [2]): 110% | remaining activity at 1 µM (ULK2; [3]): 95% | KinomeScan value (FLT3 (ITD)): 94 | remaining activity at 1 µM (FGF-R1; [2]): 94% | remaining activity at 1 µM (FGF-R1; [3]): 102% | KinomeScan value [1]: 84 | remaining activity at 1 µM (PAK4; [2]): 102% | remaining activity at 1 µM (PAK4; [3]): 92% | KinomeScan value (MST1): 100 | remaining activity at 1 µM (TLK1; [2]): 106% | remaining activity at 1 µM (TLK1; [3]): 105% | remaining activity at 1 µM (MLK1; [2]): 81% | remaining activity at 1 µM (MLK1; [3]): 38% | percent remaining enzymatic activity (VEG-FR; I1, 1 μM): 104% | percent remaining enzymatic activity (VEG-FR; I10): 100% | remaining activity at 1 µM (HER4; [2]): 94% | remaining activity at 1 µM (HER4; [3]): 71% | KinomeScan value (ACVR2B): 100 | KinomeScan value (ULK3): 96 | remaining activity at 1 µM (STK33; [2]): 22% | remaining activity at 1 µM (STK33; [3]): 15% | percent remaining enzymatic activity (TTBK2; I10): 90% | remaining activity at 1 µM (TTBK2; [4]): 105% | KinomeScan value (DCAMKL1): 74 | KinomeScan value (CSNK1G1): 97 | remaining activity at 1 µM (TTK; [2]): 69% | remaining activity at 1 µM (TTK; [3]): 12% | KinomeScan value (EGFR (G719C)): 91 | percent remaining enzymatic activity (JNK1; I10): 6% | remaining activity at 1 µM (JNK1; [4]): 38% | KinomeScan value (MET (M1250T)): 80 | KinomeScan value (EGFR (L858R, T790M)): 100 | KinomeScan value (MST3): 91 | percent remaining enzymatic activity (MLK3; I10): 35% | remaining activity at 1 µM (MLK3; [4]): 78% | percent remaining enzymatic activity (MAP4K3; I10): 41% | remaining activity at 1 µM (MAP4K3; [4]): 98% | remaining activity at 1 µM (DYRK2; [2]): 67% | remaining activity at 1 µM (DYRK2; [3]): 18% | KinomeScan value (SNARK): 100 | remaining activity at 1 µM (RSK2; [2]): 117% | remaining activity at 1 µM (RSK2; [3]): 94% | remaining activity at 1 µM (GSK3b; [2]): 82% | remaining activity at 1 µM (GSK3b; [3]): 97%
